This note sets out measurements from ChEMBL document CHEMBL1142381, “Design, synthesis, and biological evaluation of (hydroxyphenyl)naphthalene and -quinoline derivatives: potent and selective nonsteroidal inhibitors of 17beta-hydroxysteroid dehydrogenase type 1 (17beta-HSD1) for the treatment of estrogen-dependent diseases” (J Med Chem, 2008).

pIC50: −log10 of the molar value.

Data set [1] deals with T1, 17-beta-hydroxysteroid dehydrogenase type 1 (Homo sapiens, UniProt P14061).
T1 sequence (P14061 whole entry): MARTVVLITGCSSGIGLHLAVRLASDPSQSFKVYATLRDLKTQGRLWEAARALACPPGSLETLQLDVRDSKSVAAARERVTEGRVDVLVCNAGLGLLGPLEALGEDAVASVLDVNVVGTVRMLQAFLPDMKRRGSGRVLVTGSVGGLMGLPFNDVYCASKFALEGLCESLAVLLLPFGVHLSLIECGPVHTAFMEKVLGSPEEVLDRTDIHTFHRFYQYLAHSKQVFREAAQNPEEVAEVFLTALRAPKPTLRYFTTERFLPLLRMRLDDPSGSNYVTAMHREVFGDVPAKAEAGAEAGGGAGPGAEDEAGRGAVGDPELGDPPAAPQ
Put plainly: Inhibition of human placental 17beta-HSD1.

A further data set is filed under the species Homo sapiens. Briefly: Selectivity ratio for human placental 17beta-HSD1 over human placental 17beta-HSD2.
The target in data set [2] is T2, Estrogen receptor (Homo sapiens) (UniProt P03372).
T2 sequence (whole entry): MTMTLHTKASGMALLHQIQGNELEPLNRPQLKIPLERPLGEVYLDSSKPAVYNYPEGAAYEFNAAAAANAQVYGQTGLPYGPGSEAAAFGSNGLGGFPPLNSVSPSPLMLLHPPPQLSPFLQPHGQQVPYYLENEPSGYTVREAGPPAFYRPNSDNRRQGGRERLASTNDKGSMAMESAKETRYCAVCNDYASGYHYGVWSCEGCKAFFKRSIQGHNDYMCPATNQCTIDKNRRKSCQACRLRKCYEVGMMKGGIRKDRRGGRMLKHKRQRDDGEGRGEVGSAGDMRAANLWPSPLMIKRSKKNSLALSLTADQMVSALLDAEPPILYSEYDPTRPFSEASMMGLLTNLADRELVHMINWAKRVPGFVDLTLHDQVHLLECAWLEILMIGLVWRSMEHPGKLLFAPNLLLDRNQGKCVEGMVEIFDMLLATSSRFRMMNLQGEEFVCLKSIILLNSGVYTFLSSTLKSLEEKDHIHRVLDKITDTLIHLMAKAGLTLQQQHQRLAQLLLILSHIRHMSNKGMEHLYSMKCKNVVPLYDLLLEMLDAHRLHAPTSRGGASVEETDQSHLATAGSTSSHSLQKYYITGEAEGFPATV
Put plainly: Displacement of [3H]estradiol from human recombinant ERalpha relative to estradiol. (In a radioligand displacement assay an active substance lowers the binding of a labelled ligand.)

In data set [3] the target is T3, 17-beta-hydroxysteroid dehydrogenase type 2 (Homo sapiens, UniProt P37059).
T3 sequence (P37059 whole entry): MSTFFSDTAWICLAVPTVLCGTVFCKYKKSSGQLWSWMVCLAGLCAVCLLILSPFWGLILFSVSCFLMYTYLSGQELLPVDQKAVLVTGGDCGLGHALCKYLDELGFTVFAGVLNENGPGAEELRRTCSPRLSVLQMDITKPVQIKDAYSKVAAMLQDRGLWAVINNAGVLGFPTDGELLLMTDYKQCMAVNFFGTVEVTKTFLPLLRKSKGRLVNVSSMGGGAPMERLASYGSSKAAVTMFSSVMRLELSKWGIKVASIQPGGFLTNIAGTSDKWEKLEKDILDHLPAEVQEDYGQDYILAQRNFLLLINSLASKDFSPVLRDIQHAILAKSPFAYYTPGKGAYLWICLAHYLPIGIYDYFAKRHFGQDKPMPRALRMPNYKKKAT
Put plainly: Inhibition of human placental 17beta-HSD2.

Data set [4] concerns the target Estrogen receptor beta (Homo sapiens) (UniProt Q92731). Briefly: Displacement of [3H]estradiol from human recombinant ERbeta relative to estradiol.
Data set [5] deals with T4, 17-beta-hydroxysteroid dehydrogenase type 1 (Homo sapiens) (UniProt P14061).
T4 sequence (whole entry): T1 sequence (P14061 whole entry)
Put plainly: Inhibition of human recombinant 17beta-HSD1 expressed in Sf9 insect cells at 100 nM.

The target in data set [6] is T4, 17-beta-hydroxysteroid dehydrogenase type 1 (Homo sapiens). Put plainly: Inhibition of human recombinant 17beta-HSD1 expressed in Sf9 insect cells at 1 uM.
A short description of data set [7]: Apparent permeability across human Caco-2 cell membrane. The data set is classed as ADME, cell-based. On the technique in general: Caco-2 cells form a polarised layer with tight junctions and transporters.

The pIC50 is the IC50 on a negative log10 scale, so that one unit is a factor of ten. A high value points to a low IC50. What is called inhibition is the change of the read-out against control, counted positive when it falls. As a reminder, the Papp is a coefficient for how fast a substance crosses the barrier.

Estrogen receptor beta (Homo sapiens), sequence (Q92731 whole entry): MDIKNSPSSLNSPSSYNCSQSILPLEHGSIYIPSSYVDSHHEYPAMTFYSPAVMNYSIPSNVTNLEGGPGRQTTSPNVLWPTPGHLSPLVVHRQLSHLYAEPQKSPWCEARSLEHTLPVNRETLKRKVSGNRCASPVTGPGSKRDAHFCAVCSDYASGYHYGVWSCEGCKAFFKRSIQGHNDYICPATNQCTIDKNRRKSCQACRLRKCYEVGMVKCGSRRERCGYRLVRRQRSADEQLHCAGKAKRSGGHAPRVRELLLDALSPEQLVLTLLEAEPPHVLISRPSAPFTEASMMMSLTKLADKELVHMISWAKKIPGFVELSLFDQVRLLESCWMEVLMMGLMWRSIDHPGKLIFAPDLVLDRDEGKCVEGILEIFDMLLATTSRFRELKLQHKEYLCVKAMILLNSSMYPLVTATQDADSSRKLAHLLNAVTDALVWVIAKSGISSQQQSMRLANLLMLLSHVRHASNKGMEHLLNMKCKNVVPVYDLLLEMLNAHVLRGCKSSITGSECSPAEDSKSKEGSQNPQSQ

As for `Oc1ccc(-c2ccc3c(O)cccc3c2)cc1`, the pIC50 is 5.62 in data set [1] and 6.52 in data set [3]. Besides, the Ratio IC50 in the data set listed under Homo sapiens came to 0.1. The RBA in data set [2] and in data set [4] was 5% throughout.

As to `O=C1CCCc2cc(-c3cccc(O)c3)ccc21`, the figures for the inhibition in data set [5] and in data set [6] were less than 10% and 23%, respectively.

Consider `Oc1cccc(-c2cnc3cc(O)ccc3c2)c1`, for which the inhibition was determined as 24% in data set [5] and 57% in data set [6].

As for `O=[N+]([O-])c1cccc(-c2ccc3cc(O)ccc3c2)c1`, the inhibition in data set [5] and in data set [6] was less than 10% each time.

As for `Oc1ccc2cc(-c3cccnc3)ccc2c1`, the inhibition in data set [5] was less than 10%; in data set [6], 32%.

Regarding `Oc1cccc(-c2ccc3cc(O)ccc3c2)c1`, the pIC50 in data set [1] was 6.94. The RBA in data set [2] came out at 0.2%; in data set [4] it was 0.8%. Besides, the Papp in data set [7] was found to be 8.9 ×10⁻⁶ cm/s.

`Oc1cccc(-c2cc3cc(O)ccc3[nH]2)c1`: the inhibition in data set [5] and in data set [6] was less than 10% each time.

Regarding `Oc1ccc(-c2cnc3cc(O)ccc3c2)cc1`, the inhibition in data set [5] and in data set [6] was less than 10% each time.

As for `CC(=O)Nc1cccc(-c2ccc3cc(O)ccc3c2)c1`, the inhibition in data set [5] is less than 10%; in data set [6], 19%.

As to `O=C(O)c1ccc(-c2ccc3cc(O)ccc3c2)cc1`, the inhibition in data set [5] and in data set [6] was less than 10% in each case.

In data set [1], `C[C@]12CC[C@@H]3c4ccc(O)cc4CC[C@H]3[C@@H]1CC(CCCCCCCCC(=O)OC[C@H]1O[C@@H](n3cnc4c(N)ncnc43)[C@H](O)[C@@H]1O)[C@@H]2O` (stereo partly drawn) showed a pIC50 of 7.28.

`Oc1ccc(-c2ccc3cc(O)ccc3c2)cc1`: the inhibition in data set [5] and in data set [6] was less than 10% each time.

Regarding `Nc1cccc(-c2ccc3cc(O)ccc3c2)c1`, the inhibition in data set [5] and in data set [6] was less than 10% each time.

Consider `O=C(O)c1cccc(-c2ccc3cc(O)ccc3c2)c1`, for which the results for the inhibition in data set [5] and in data set [6] were 36% and 76%, respectively.

Regarding `Oc1ccc2cc(-c3cccs3)ccc2c1`, the inhibition in data set [5] and in data set [6] was less than 10% each time.

As to `Oc1cccc(-c2cnc3ccccc3c2)c1`, the figures for the inhibition in data set [5] and in data set [6] were less than 10% and 18%, respectively.

`Oc1ccc2cc(-c3ccsc3)ccc2c1`: the inhibition in data set [5] and in data set [6] was less than 10% throughout.

For `Oc1cccc(-c2ccc3ccc(O)cc3c2)c1`, the figures for the inhibition in data set [5] and in data set [6] were 16% and 62%, respectively.

Turning to `Oc1ccc2cc(-c3ccccc3O)ccc2c1`, the inhibition in data set [5] and in data set [6] was less than 10% each time.

On to `Oc1ccc2cc(-c3ccccc3)ccc2c1`, for which the inhibition in data set [5] and in data set [6] was less than 10% in each case.

Take `OCc1ccc(-c2ccc3cc(O)ccc3c2)cc1`: the results for the inhibition in data set [5] and in data set [6] were less than 10% and 13%, respectively.

As for `OCc1cccc(-c2ccc3cc(O)ccc3c2)c1`, the inhibition in data set [5] and in data set [6] was less than 10% throughout.

For `Oc1cccc(-c2ccc3ccccc3c2)c1`, the pIC50 in data set [1] was 5.65; in data set [3] it was 5.40. For the same molecule, the Ratio IC50 in the data set filed under Homo sapiens stood at 1.8. In addition, the RBA in data set [2] and in data set [4] was 0.01% throughout. The inhibition was 26% in data set [5] and 61% in data set [6].

Consider `Oc1cccc(-c2ccc3cc(O)ccc3n2)c1`, for which the inhibition in data set [5] was found to be 14%; in data set [6], 63%.

Consider `Oc1cncc(-c2ccc3cc(O)ccc3c2)c1`, for which the pIC50 is 5.91 in data set [1] and less than 5.00 in data set [3]. In the data set listed under Homo sapiens, the Ratio IC50 was more than 8. Moreover, the RBA worked out at 0.01% in data set [2] and 1% in data set [4]. For the same molecule, the inhibition stood at 30% in data set [5] and 58% in data set [6].

Regarding `Oc1cccc(-c2ccc3c(O)cccc3c2)c1`, the inhibition in data set [5] was less than 10%; in data set [6], 23%.

Consider `Oc1ccc(-c2cnc3ccccc3c2)cc1`, for which the inhibition in data set [5] and in data set [6] was less than 10% in each case.
